# Columns and labels:
# AnxA2 [1] = test: 5-Azacytidine treatment of HepG2 cells, AnxA2 expression; format: cell-based, human
# Excerpt: (§1) Western blotting experiments were made on samples that were reduced in Laemmli buffer, heated and resolved on 8% glycine SDS-PAGE gels. Separated proteins were then electro-transferred onto nitrocellulose, and probed with HRP-conjugated anti-V5 or anti-HA tags or with primary antibodies. […] Quantitation of band intensity was done with the ImageJ™ software version 1.37 (Wayne Rasband, National Institutes of Health, Bethesda, Md.).
# (§2) For RNA preparation and cDNA synthesis cells were washed with PBS and incubated with Trizol reagent (Life Technologies). Total RNA was extracted and resuspended in ˜30 μL of water. Isolated RNA integrity was electrophoretically verified by ethidium bromide staining and optical density. Typically, 250 ng of total RNA were used for cDNA synthesis in a total volume of 20 μL using SuperScript™ II reverse transcriptase, 25 μg/mL oligo(dT)12-18, 0.5 mmol/L 2′-deoxynucleoside 5′-triphosphates, and 40 U of RNaseOUT™, all products from Life Technologies, and used according to the recommendations of the manufacturer. All primers were designed using Primer3™ software and optimized for each amplification. […] Each reaction was in a final volume of 25 μL using the QuantiTec SYBR Green™ PCR master mix from Qiagen, cDNA dilutions that gave threshold cycle (Ct) values for both amplifications, and primers for ribosomal-protein genes or the chosen target gene. […]
# PCSK9 [2] = test: 5-Azacytidine treatment of HepG2 cells, PCSK9 expression; format: cell-based, human
# Excerpt: as §1, §2
# LDLR [3] = test: 5-Azacytidine treatment of HepG2 cells, LDLR expression; format: cell-based, human
# Excerpt: as §1, §2
# HMG-CoA reductase = test: 5-Azacytidine treatment of HepG2 cells, HMG-CoA reductase expression; format: cell-based, human; conditions: HepG2, qPCR
# Description: For RNA preparation and cDNA synthesis cells were washed with PBS and incubated with Trizol reagent (Life Technologies). Total RNA was extracted and resuspended in ˜30 μL of water. Isolated RNA integrity was electrophoretically verified by ethidium bromide staining and optical density. Typically, 250 ng of total RNA were used for cDNA synthesis in a total volume of 20 μL using SuperScript™ II reverse transcriptase, 25 μg/mL oligo(dT)12-18, 0.5 mmol/L 2′-deoxynucleoside 5′-triphosphates, and 40 U of RNaseOUT™, all products from Life Technologies, and used according to the recommendations of the manufacturer. All primers were designed using Primer3™ software and optimized for each amplification. Each cDNA sample was submitted to 2 polymerase chain reaction (PCR) amplifications: one for normalizing ribosomal-protein gene (S14 for human and S16 for mouse cDNAs) and the other for the gene of interest, each in triplicate. Each reaction was in a final volume of 25 μL using the QuantiTec SYBR Green™ PCR master mix from Qiagen, cDNA dilutions that gave threshold cycle (Ct) values for both amplifications, and primers for ribosomal-protein genes or the chosen target gene. The Mx3500P™ system from Stratagene was used to perform and analyze the QPCR reactions, using S14 amplifications as normalizers and control samples as calibrators^25.35.
# Annexin II = conditions: LNCaP cells; cited from earlier work
# [4] = system: PCSK9-induced LDLR degradation; test: LDLR Western blot of HepG2 cells incubated with PCSK9 conditioned media with or without purified AnxA2; format: cell-based, human
# Description: (§3) HepG2, HuH7, COS-1, BSC40 and HEK293 cell were grown in Dulbecco's modified Eagle's medium (DMEM) with 10% fetal bovine serum (FBS; Gibco), whereas CHO-K1 and CHO-K1 mutant Pgsd-677 cells that lack heparan sulfate proteoglycans^26 were grown in Ham's F12:DMEM (50:50) media with 10% FBS. Y1 mouse adrenal cells were grown in F12K medium with 15% horse serum and 2.5% FBS. All cells were maintained at 37° C. under 5% CO2. At 80-90% confluence, HuH7 and CHO-K1 cells were transiently transfected with Lipofectamine™ 2000 (Invitrogen), HEK293 cells were transfected with Effectene™ (Qiagen) and HepG2 cells were transfected with Fugene™ HD (Roche). […] For analysis of the various AnxA2 mutants in HEK293 cells, 24 h post-transfection, the cells were washed and then incubated for another 24 h in complete medium containing 50 μM of the proteasome inhibitor ALLN (Calbiochem). Stable transfectants of shRNA-AnxA2 were obtained in HuH7 cells following puromycin selection.
# as §1, with “Md.). […]” for “Md.).”
# PCSK9 [5] = target: T1, PCSK9 (Homo sapiens, UniProt Q8NBP7); test: Cell surface PCSK9 immunofluorescence on CHO-K1 cells overexpressing the LDLR; format: cell-based; conditions: 1 μg purified PCSK9, 4° C., 5 or 20 μg purified AnxA2
# T1 construct: purchased Bristol-Myers Squibb (gift, not bought); host or cells: added to CHO-K1 cells overexpressing the LDLR
# Description: (§4) For immuno-cytochemistry, cells were plated on glass bottom culture dishes (MatTek) and then transfected the following day. Twenty-four hours post-transfection, the cells were washed with DMEM, incubated for an additional 20 h without serum and then washed 3 times with PBS. Cell surface labelings were made under non-permeabilizing conditions by fixation with 3.7% formaldehyde for 10 min at room temperature. Cells were then washed in PBS, incubated for 5 min in 150 mM glycine, washed once in PBS and incubated for 30 min in 1% bovine serum albumin in PBS. Cells were incubated overnight at 4° C. with primary antibodies and then washed 4× with PBS. […] After several washes in PBS, cells were covered with 5% 1,4-diazabicyclo[2.2.2]octane (Sigma) in PBS/glycerol 90% and immunofluorescence analyses were performed with a Zeiss LSM-510 confocal microscope.
# Finally, addition of 1 μg of purified PCSK9 to CHO-K1 cells overexpressing the LDLR at 4° C. […] Therefore, it was deduced that because of its interaction with the CHRD AnxA2 reduces the level of cell surface PCSK9 likely bound to the LDLR. Without being bound by this hypothesis, PCSK9's reduced binding to LDLR induces a more rapid internalization of PCSK9 into the cell.
# PCSK9-V5 [6] = target: T2, PCSK9-V5 (Homo sapiens, UniProt Q8NBP7); test: Hexa-His pull-down assay; format: binding; parameters: made in house; host or cells: CHO-K1 cells (conditioned medium, not purified); conditions: 20 μg protein immobilized on cobalt chelate resin
# Description: 20 μg of purified AnxA2-(His)6 or AnxA1-(His)6 or no proteins (for negative control) were immobilized onto a cobalt chelate resin (Thermo Scientific). The resin was then washed several times with 40 mM immidazole and incubated overnight at 4° C. with 800 μl of conditioned media from PCSK9-V5-transfected CHO-K1 cells containing 40 mM immidazole. The resin was then washed several times with immidazole (40 mM), heated in reducing Laemmli sample buffer and centrifuged. Supernatants were analyzed by Western blot as described above using the anti-V5-HRP or anti-His-HRP antibodies.
# PCSK9-V5 [7] = target: T2, PCSK9-V5; test: Far Western blot with PCSK9-V5 conditioned media; format: binding; parameters: made in house; host or cells: CHO-K1 cells (conditioned medium, not purified)
# AnxA2 [8] = test: shRNA knockdown in HuH7 cells, AnxA2 Western blot; format: cell-based, human; conditions: HuH7, stable or transient transfection, vs control shRNA
# Description: (§5) To silence human AnxA2, a 29mer pRS-shRNA was used: (sh3, […] (SEQ ID NO: 105)) (Origene). The control pRS-shGFP vector [shCtl] contained a non-effective 29mer shGFP cassette.
# as §3, with “Stable transfectants of shRNA-AnxA2 were obtained in HuH7 cells following puromycin selection.” left out
# (§6) Western blotting experiments were made on samples that were reduced in Laemmli buffer, heated and resolved on 8% glycine SDS-PAGE gels. […] Quantitation of band intensity was done with the ImageJ™ software version 1.37 (Wayne Rasband, National Institutes of Health, Bethesda, Md.).
# LDLR [9] = test: shRNA knockdown in HuH7 cells, LDLR Western blot; format: cell-based, human; conditions: HuH7, stable or transient transfection, vs control shRNA
# Description: as §5
# as §3, with “Stable transfectants of shRNA-AnxA2 were obtained in HuH7 cells following puromycin selection.” left out
# as §6
# LDLR [10] = test: LDLR Western blot of transfected HEK293 cells; format: cell-based, human; conditions: HEK293 cells (negligible PCSK9), with or without p11
# Description: as §3, §1
# [11] = system: PCSK9-enhanced LDLR degradation; test: LDLR Western blot of CHO-K1 cells co-transfected with PCSK9 and AnxA2; format: cell-based; conditions: PCSK9 alone reduced LDLR by ~30%
# Description: as §3, §1
# LDLR [12] = test: LDLR Western blot of HepG2 cells transfected with AnxA2; format: cell-based, human
# Description: as §3, §1
# LDLR [13] = test: Cell surface LDLR immunofluorescence of transfected HepG2 cells; format: cell-based, human
# Description: as §4
# T2 sequence (Q8NBP7 153-692): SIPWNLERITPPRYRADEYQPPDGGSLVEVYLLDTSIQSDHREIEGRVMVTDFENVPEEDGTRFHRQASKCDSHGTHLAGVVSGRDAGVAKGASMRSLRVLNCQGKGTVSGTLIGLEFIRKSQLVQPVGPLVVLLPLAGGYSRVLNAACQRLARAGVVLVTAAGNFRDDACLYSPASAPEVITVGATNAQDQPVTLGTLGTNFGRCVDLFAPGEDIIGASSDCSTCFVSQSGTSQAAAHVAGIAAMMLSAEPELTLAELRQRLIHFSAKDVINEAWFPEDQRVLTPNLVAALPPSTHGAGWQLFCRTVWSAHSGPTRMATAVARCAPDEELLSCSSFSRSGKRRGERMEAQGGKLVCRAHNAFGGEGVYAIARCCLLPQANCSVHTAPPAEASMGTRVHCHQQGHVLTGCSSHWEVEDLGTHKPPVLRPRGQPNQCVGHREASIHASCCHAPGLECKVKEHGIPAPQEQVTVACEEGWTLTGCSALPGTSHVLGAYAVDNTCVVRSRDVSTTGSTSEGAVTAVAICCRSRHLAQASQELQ
# T2 sequence (Q8NBP7 31-152 partner limits assumed): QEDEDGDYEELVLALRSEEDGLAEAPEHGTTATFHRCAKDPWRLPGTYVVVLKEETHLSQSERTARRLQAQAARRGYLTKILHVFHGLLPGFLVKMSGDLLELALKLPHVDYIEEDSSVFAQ
# T1 sequence (Q8NBP7 153-692): as the sequence (Q8NBP7 153-692) above
# T1 sequence (Q8NBP7 31-152 partner limits assumed): as the sequence (Q8NBP7 31-152 partner limits assumed) above
molecule,measurement,setting,value
Nc1ncn([C@@H]2O[C@H](CO)[C@@H](O)[C@H]2O)c(=O)n1 [5-Azacytidine],AnxA2 mRNA expression,"AnxA2 [1]; HepG2, 10 μM, qPCR",3 fold
same,AnxA2 protein level,"AnxA2 [1]; HepG2, Western blot",highly increased
same,secreted form of PCSK9 by western blot,"PCSK9 [2]; HepG2, 24 or 48 hours of treatment",barely detectable
same,mRNA level of PCSK9,"PCSK9 [2]; HepG2, qPCR",drastically decreased
same,LDLR expression at the protein level,"LDLR [3]; HepG2, Western blot",increased expression
same,LDLR mRNA level,"LDLR [3]; HepG2, qPCR",increased
same,HMG-CoA reductase mRNA level,HMG-CoA reductase,decreased
same,expression of Annexin II,Annexin II,induced an increase of expression
AnxA2-(His)6: purified His-tagged Annexin A2 purchased from EMD biosciences,level of LDLR,"[4]; HepG2, media of non-transfected cells, endogenous PCSK9",increased the level of LDLR
same,PCSK9-enhanced LDLR degradation,"[4]; HepG2, ~20 h, PCSK9 conditioned media plus 5 ug/ml purified AnxA2-(His)6, ~30% without AnxA2",~10%
same,cell surface localization of PCSK9,PCSK9 [5],reduced
same,PCSK9-V5 bound in pull-down,PCSK9-V5 [6],bound PCSK9 and its furin cleaved form (PCSK9-Δ218)
same,PCSK9 binding to purified protein by Far Western blot,PCSK9-V5 [7]; reducing and non-reducing conditions,binds in a dose-dependant manner
"AnxA2-shRNA: 29mer pRS-shRNA silencing human AnxA2, GCATCAGCACTGAAGTCAGCCTTATCTGG (SEQ ID NO: 105)",knockdown of AnxA2,AnxA2 [8],60-70%
same,reduction of the LDLR levels,LDLR [9],40-70%
same,levels of endogenous LDLR,LDLR [10],None of these treatments affected the levels of endogenous LDLR
"AnxA2: wild type human Annexin A2 isoform 2, expressed in cells by transfection",LDLR level,[11],returned to that of the control
same,increase of LDLR level,"LDLR [12]; HepG2, AnxA2 co-transfected with p11",~90%
same,increase of LDLR level,LDLR [12]; HepG2 transfected with AnxA2 alone,~40%
same,labelling intensity of cell surface LDLR,"LDLR [13]; HepG2, AnxA2 alone or together with p11, vs pIRES control",strong increase
same,LDLR-lowering effect of WT-PCSK9 or PCSK9-D374Y,"LDLR [13]; HepG2, co-expression with AnxA2",prevented their LDLR-lowering effect
same,levels of endogenous LDLR,LDLR [10],None of these treatments affected the levels of endogenous LDLR
same,PCSK9-V5 binding by Far Western blot,PCSK9-V5 [7]; lysates of cells overexpressing the construct,specifically binds

# Source: patent publication US8673850B2, “PCSK9 inhibitors and methods of use thereof” (Institut de Recherches Cliniques de Montreal, priority 2008, dated 2014)
